Reference: patent US20230143604A1, “QW DOSING OF GIP RECEPTOR AGONIST PEPTIDE COMPOUNDS AND USES THEREOF” (TAKEDA PHARMACEUTICAL COMPANY LIMITED, priority 2020, published 2023)
Starred links: 1 amine or outer side, 2 acyl side, 3 side chain; linkers in the order of their positions; H or OH if unused. Non-standard residues stand in square brackets, D forms with d. Residues, ends and D or L forms follow the SMILES beside them. Groups on a side chain read outwards from the residue. *: point of attachment. C18 diacid = O=C(O)CCCCCCCCCCCCCCCCC(=O)*; C17 diacid = O=C(O)CCCCCCCCCCCCCCCC(=O)*; γGlu = O=C(O)[C@H](CCC(=O)[*:2])N[*:1]; NMeY = CN[C@@H](Cc1ccc(O)cc1)C(=O)O; AEEA = NCCOCCOCC(=O)O; Aib = CC(C)(N)C(=O)O

Assay: Solubility in phosphate buffer pH 7.4
Method in brief: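 Solubility at pH 7.4 determined by stepwise addition of 200 mM phosphate buffer in 100 μL increments to 3 mg peptide, mixing briefly each time, until no insoluble material remained, then measured by liquid chromatography.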

[1] = pH 7.4, aqueous buffer, pH 7.4 Phosphate Buffer - Solubility, 200 mM Phosphate buffer pH 7.4
[2] = pH 7.4, solubility in phosphate buffer at pH 7.4, 200 mM phosphate buffer pH 7.4

CC[C@H](C)[C@H](NC(=O)[C@H](Cc1ccccc1)NC(=O)[C@@H](NC(=O)CNC(=O)[C@H](CCC(=O)O)NC(=O)C(C)(C)NC(=O)[C@H](Cc1ccc(O)cc1)NC)[C@@H](C)O)C(=O)N[C@@H](CO)C(=O)N[C@@H](CC(=O)O)C(=O)N[C@@H](Cc1ccc(O)cc1)C(=O)N[C@@H](CO)C(=O)N[C@H](C(=O)NC(C)(C)C(=O)N[C@@H](CCCCNC(=O)COCCOCCNC(=O)COCCOCCNC(=O)CC[C@H](NC(=O)CC[C@H](NC(=O)CCCCCCCCCCCCCCCC(=O)O)C(=O)O)C(=O)O)C(=O)N[C@@H](CC(=O)O)C(=O)N[C@@H](CCCNC(=N)N)C(=O)NC(C)(C)C(=O)N[C@@H](C)C(=O)N[C@@H](CCC(N)=O)C(=O)NC(C)(C)C(=O)N[C@@H](CC(N)=O)C(=O)N[C@@H](Cc1ccccc1)C(=O)N[C@H](C(=O)N[C@@H](CC(N)=O)C(=O)N[C@@H](Cc1c[nH]c2ccccc12)C(=O)N[C@@H](CC(C)C)C(=O)N[C@@H](CC(C)C)C(=O)N[C@@H](C)C(=O)N[C@@H](CCC(N)=O)C(=O)N[C@@H](CO)C(=O)N1CCC[C@H]1C(=O)N[C@@H](CO)C(=O)N[C@@H](CO)C(=O)NCC(=O)N[C@@H](C)C(=O)N1CCC[C@H]1C(=O)N1CCC[C@H]1C(=O)N1CCC[C@H]1C(=O)N[C@@H](CO)C(N)=O)C(C)C)[C@@H](C)CC [Compound 29] (H-[NMeY][Aib]EGTFISDYSI[Aib]K([AEEA-AEEA-γGlu-γGlu-C17 diacid])DR[Aib]AQ[Aib]NFVNWLLAQSPSSGAPPPS-NH2)
solubility [1]: ≥ 30 mg/mL | solubility [2]: ≥ 15 mg/mL

CC[C@H](C)[C@H](NC(=O)[C@H](CO)NC(=O)[C@H](Cc1ccc(O)cc1)NC(=O)[C@H](CC(=O)O)NC(=O)[C@H](CO)NC(=O)[C@@H](NC(=O)[C@H](Cc1ccccc1)NC(=O)[C@@H](NC(=O)CNC(=O)[C@H](CCC(=O)O)NC(=O)C(C)(C)NC(=O)[C@H](Cc1ccc(O)cc1)NC)[C@@H](C)O)[C@@H](C)CC)C(=O)N[C@@H](C)C(=O)N[C@@H](CC(C)C)C(=O)N[C@@H](CC(=O)O)C(=O)N[C@@H](CCCNC(=N)N)C(=O)NC(C)(C)C(=O)N[C@@H](C)C(=O)N[C@@H](CCC(N)=O)C(=O)NC(C)(C)C(=O)N[C@@H](CCCCNC(=O)COCCOCCNC(=O)COCCOCCNC(=O)CC[C@H](NC(=O)CC[C@H](NC(=O)CCCCCCCCCCCCCCCC(=O)O)C(=O)O)C(=O)O)C(=O)N[C@@H](Cc1ccccc1)C(=O)N[C@H](C(=O)N[C@@H](CC(N)=O)C(=O)N[C@@H](Cc1c[nH]c2ccccc12)C(=O)N[C@@H](CC(C)C)C(=O)N[C@@H](CC(C)C)C(=O)N[C@@H](C)C(=O)N[C@@H](CCC(N)=O)C(=O)N[C@@H](CCCNC(=N)N)C(=O)NCC(=O)NCC(=O)NCC(=O)NCC(=O)N[C@@H](CO)C(N)=O)C(C)C [Compound 30] (H-[NMeY][Aib]EGTFISDYSIALDR[Aib]AQ[Aib]K([AEEA-AEEA-γGlu-γGlu-C17 diacid])FVNWLLAQRGGGGS-NH2)
solubility (pH 7.4): ≥ 15 mg/mL | solubility (pH 7.4, aqueous buffer): ≥ 30 mg/mL

CC[C@H](C)[C@H](NC(=O)[C@H](CO)NC(=O)[C@H](Cc1ccc(O)cc1)NC(=O)[C@H](CC(=O)O)NC(=O)[C@H](CO)NC(=O)[C@@H](NC(=O)[C@H](Cc1ccccc1)NC(=O)[C@@H](NC(=O)CNC(=O)[C@H](CCC(=O)O)NC(=O)C(C)(C)NC(=O)[C@H](Cc1ccc(O)cc1)NC)[C@@H](C)O)[C@@H](C)CC)C(=O)N[C@@H](C)C(=O)N[C@@H](CC(C)C)C(=O)N[C@@H](CC(=O)O)C(=O)N[C@@H](CCCNC(=N)N)C(=O)NC(C)(C)C(=O)N[C@@H](CCCCNC(=O)COCCOCCNC(=O)COCCOCCNC(=O)CC[C@H](NC(=O)CC[C@H](NC(=O)CCCCCCCCCCCCCCCC(=O)O)C(=O)O)C(=O)O)C(=O)N[C@@H](CCC(N)=O)C(=O)NC(C)(C)C(=O)N[C@@H](CC(N)=O)C(=O)N[C@@H](Cc1ccccc1)C(=O)N[C@H](C(=O)N[C@@H](CC(N)=O)C(=O)N[C@@H](Cc1c[nH]c2ccccc12)C(=O)N[C@@H](CC(C)C)C(=O)N[C@@H](CC(C)C)C(=O)N[C@@H](C)C(=O)N[C@@H](CCC(N)=O)C(=O)N[C@@H](CO)C(=O)NCC(=O)NCC(=O)NCC(=O)NCC(=O)N[C@@H](CO)C(N)=O)C(C)C [Compound 31] (H-[NMeY][Aib]EGTFISDYSIALDR[Aib]K([AEEA-AEEA-γGlu-γGlu-C17 diacid])Q[Aib]NFVNWLLAQSGGGGS-NH2)
solubility (pH 7.4): ≥ 15 mg/mL | solubility (pH 7.4, aqueous buffer): ≥ 30 mg/mL

CC[C@H](C)[C@H](NC(=O)[C@H](Cc1ccccc1)NC(=O)[C@@H](NC(=O)CNC(=O)[C@H](CCC(=O)O)NC(=O)C(C)(C)NC(=O)[C@H](Cc1ccc(O)cc1)NC)[C@@H](C)O)C(=O)N[C@@H](CO)C(=O)N[C@@H](CC(=O)O)C(=O)N[C@@H](Cc1ccc(O)cc1)C(=O)N[C@@H](CO)C(=O)N[C@H](C(=O)NC(C)(C)C(=O)N[C@@H](CCCCNC(=O)COCCOCCNC(=O)COCCOCCNC(=O)CC[C@H](NC(=O)CC[C@H](NC(=O)CCCCCCCCCCCCCCCC(=O)O)C(=O)O)C(=O)O)C(=O)N[C@@H](CC(=O)O)C(=O)N[C@@H](CCCNC(=N)N)C(=O)NC(C)(C)C(=O)N[C@@H](C)C(=O)N[C@@H](CCC(N)=O)C(=O)NC(C)(C)C(=O)N[C@@H](CC(N)=O)C(=O)N[C@@H](Cc1ccccc1)C(=O)N[C@H](C(=O)N[C@@H](CC(N)=O)C(=O)N[C@@H](Cc1c[nH]c2ccccc12)C(=O)N[C@@H](CC(C)C)C(=O)N[C@@H](CC(C)C)C(=O)N[C@@H](C)C(=O)N[C@@H](CCC(N)=O)C(=O)N[C@@H](CCCNC(=N)N)C(=O)NCC(=O)NCC(=O)NCC(=O)NCC(=O)N[C@@H](CO)C(N)=O)C(C)C)[C@@H](C)CC [Compound 32] (H-[NMeY][Aib]EGTFISDYSI[Aib]K([AEEA-AEEA-γGlu-γGlu-C17 diacid])DR[Aib]AQ[Aib]NFVNWLLAQRGGGGS-NH2)
solubility (pH 7.4): ≥ 15 mg/mL | solubility (pH 7.4, aqueous buffer): ≥ 30 mg/mL

CC[C@H](C)[C@H](NC(=O)[C@H](Cc1ccccc1)NC(=O)[C@@H](NC(=O)CNC(=O)[C@H](CCC(=O)O)NC(=O)C(C)(C)NC(=O)[C@H](Cc1ccc(O)cc1)NC)[C@@H](C)O)C(=O)N[C@@H](CO)C(=O)N[C@@H](CC(=O)O)C(=O)N[C@@H](Cc1ccc(O)cc1)C(=O)N[C@@H](CO)C(=O)N[C@H](C(=O)NC(C)(C)C(=O)N[C@@H](CC(C)C)C(=O)N[C@@H](CC(=O)O)C(=O)N[C@@H](CCCNC(=N)N)C(=O)NC(C)(C)C(=O)N[C@@H](C)C(=O)N[C@@H](CCC(N)=O)C(=O)NC(C)(C)C(=O)N[C@@H](CC(N)=O)C(=O)N[C@@H](Cc1ccccc1)C(=O)N[C@H](C(=O)N[C@@H](CC(N)=O)C(=O)N[C@@H](Cc1c[nH]c2ccccc12)C(=O)N[C@@H](CC(C)C)C(=O)N[C@@H](CC(C)C)C(=O)N[C@@H](C)C(=O)N[C@@H](CCC(N)=O)C(=O)N[C@@H](CCCCNC(=O)COCCOCCNC(=O)COCCOCCNC(=O)CC[C@H](NC(=O)CC[C@H](NC(=O)CCCCCCCCCCCCCCCC(=O)O)C(=O)O)C(=O)O)C(=O)NCC(=O)NCC(=O)NCC(=O)NCC(=O)N[C@@H](CO)C(N)=O)C(C)C)[C@@H](C)CC [Compound 33] (H-[NMeY][Aib]EGTFISDYSI[Aib]LDR[Aib]AQ[Aib]NFVNWLLAQK([AEEA-AEEA-γGlu-γGlu-C17 diacid])GGGGS-NH2)
solubility (pH 7.4): ≥ 15 mg/mL | solubility (pH 7.4, aqueous buffer): ≥ 30 mg/mL

CC[C@H](C)[C@H](NC(=O)[C@H](CO)NC(=O)[C@H](Cc1ccc(O)cc1)NC(=O)[C@H](CC(=O)O)NC(=O)[C@H](CO)NC(=O)[C@@H](NC(=O)[C@H](Cc1ccccc1)NC(=O)[C@@H](NC(=O)CNC(=O)[C@H](CCC(=O)O)NC(=O)C(C)(C)NC(=O)[C@H](Cc1ccc(O)cc1)NC)[C@@H](C)O)[C@@H](C)CC)C(=O)N[C@@H](C)C(=O)N[C@@H](CCCCNC(=O)CNC(=O)CNC(=O)CNC(=O)CNC(=O)CNC(=O)CC[C@H](NC(=O)CC[C@H](NC(=O)CCCCCCCCCCCCCCCCC(=O)O)C(=O)O)C(=O)O)C(=O)N[C@@H](CC(=O)O)C(=O)N[C@@H](CCCNC(=N)N)C(=O)NC(C)(C)C(=O)N[C@@H](C)C(=O)N[C@@H](CCC(N)=O)C(=O)NC(C)(C)C(=O)N[C@@H](CC(N)=O)C(=O)N[C@@H](Cc1ccccc1)C(=O)N[C@H](C(=O)N[C@@H](CC(N)=O)C(=O)N[C@@H](Cc1c[nH]c2ccccc12)C(=O)N[C@@H](CC(C)C)C(=O)N[C@@H](CC(C)C)C(=O)N[C@@H](C)C(=O)N[C@@H](CCC(N)=O)C(=O)N[C@@H](CCCNC(=N)N)C(=O)N1CCC[C@H]1C(=O)N[C@@H](CO)C(=O)N[C@@H](CO)C(=O)NCC(=O)N[C@@H](C)C(=O)N1CCC[C@H]1C(=O)N1CCC[C@H]1C(=O)N1CCC[C@H]1C(=O)N[C@@H](CO)C(N)=O)C(C)C [Compound 34]
solubility [1]: ≥ 30 mg/mL | solubility [2]: ≥ 15 mg/mL

CC[C@H](C)[C@H](NC(=O)[C@H](CO)NC(=O)[C@H](Cc1ccc(O)cc1)NC(=O)[C@H](CC(=O)O)NC(=O)[C@H](CO)NC(=O)[C@@H](NC(=O)[C@H](Cc1ccccc1)NC(=O)[C@@H](NC(=O)CNC(=O)[C@H](CCC(=O)O)NC(=O)C(C)(C)NC(=O)[C@H](Cc1ccc(O)cc1)NC)[C@@H](C)O)[C@@H](C)CC)C(=O)N[C@@H](C)C(=O)N[C@@H](CC(C)C)C(=O)N[C@@H](CC(=O)O)C(=O)N[C@@H](CCCNC(=N)N)C(=O)NC(C)(C)C(=O)N[C@@H](C)C(=O)N[C@@H](CCC(N)=O)C(=O)NC(C)(C)C(=O)N[C@@H](CCCCNC(=O)COCCOCCNC(=O)COCCOCCNC(=O)CC[C@H](NC(=O)CC[C@H](NC(=O)CCCCCCCCCCCCCCCCC(=O)O)C(=O)O)C(=O)O)C(=O)N[C@@H](Cc1ccccc1)C(=O)N[C@H](C(=O)N[C@@H](CC(N)=O)C(=O)N[C@@H](Cc1c[nH]c2ccccc12)C(=O)N[C@@H](CC(C)C)C(=O)N[C@@H](CC(C)C)C(=O)N[C@@H](C)C(=O)N[C@@H](CCC(N)=O)C(=O)N[C@@H](CCCNC(=N)N)C(=O)N1CCC[C@H]1C(=O)N[C@@H](CO)C(=O)N[C@@H](CO)C(=O)NCC(=O)N[C@@H](C)C(=O)N1CCC[C@H]1C(=O)N1CCC[C@H]1C(=O)N1CCC[C@H]1C(=O)N[C@@H](CO)C(N)=O)C(C)C [Compound 35] (H-[NMeY][Aib]EGTFISDYSIALDR[Aib]AQ[Aib]K([AEEA-AEEA-γGlu-γGlu-C18 diacid])FVNWLLAQRPSSGAPPPS-NH2)
solubility [1]: ≥ 30 mg/mL | solubility [2]: ≥ 15 mg/mL
